This is an account of results in patent US20230219251A1, “MULTIFUNCTIONAL WOOD PRESERVATIVE COMPOSITION AND WOOD PRESERVATION TREATMENT METHOD USING THE SAME” (KOREA INSTITUTE OF SCIENCE AND TECHNOLOGY, priority 2022, published 2023).

Where only a bound is given, the exact number is not on record here.

The conditions of series [1]: cited from earlier work.
The subject of another series is Coptotermes formosanus. To be noted: cited from earlier work.
For a further series, the system named is Reticulitermes speratus. To be noted: cited from earlier work.
The subject of the next series is rot fungi. To be noted: cited from earlier work.
The next series concerns wood-boring insects. To be noted: cited from earlier work.
Series [2] in a line: pH of the prepared solutions. The format is physicochemical. As for the experimental part: (§1) Specifically, 150 g of BA was added, and HH was added at ratios shown in Table 1 after addition of water (distilled water), followed by reaction at a temperature of each reaction solution of 60° C. The termination time point of the reaction was when the solution became a transparent solution. The degree of precipitation was analyzed one day after the completion of the reaction.
Hydrazine borates (#7 to #11) with different BAE levels were synthesized by varying the amounts of BA and HH. Specifically, BA was added at proportions shown in Table 3 below, and water was added and HH was added, followed by reaction at a temperature of each reaction solution of 60° C. Then, the termination time point of the reaction was when the solution became a transparent solution. The degree of precipitation was analyzed one month after the completion of the reaction.

For series [3] the following is noted: 30 wt % BAE; one day after completion of the reaction. The procedure: Hydrazine borates (#1 to #6) were synthesized by varying the amounts of boric acid (BA) and hydrazine hydrate (HH) while fixing the boric acid equivalent (BAE) level to 30 wt %.
as §1

Series [4] in a line: Test on dilution stability.
Protocol: The precipitation or lack thereof over time was visually observed while the tube was shaken every 6 hours, and the results are shown in Table 14.
The mark [5] stands for this setting: reaction solutions of Example 1, 30 wt % BAE.
[6] abbreviates: reaction solutions of Example 2, 40-71 wt % BAE.

In the case of `N.O=BOB1OB2OB(O)OB(O1)O2` [ammonium pentaborate (APB), ammonium pentaborate], the “BAE at room temperature” value in series [1] was 10.6 % BAE.
For the compound `O.O.O.O.O=BOB1OB(OB=O)OB2OB([O-])OB([O-])OB(O1)O2.[Na+].[Na+]` [disodium octaborate tetrahydrate (DOT), disodium octaborate tetrahydrate], the “BAE at room temperature” value in series [1] is reported as 11.6 % BAE.
In the case of borate, the Toxicity titer with Coptotermes formosanus is 3.0 kg/m^3 BAE; in the series with Reticulitermes speratus, below 3.0 kg/m^3 BAE; with rot fungi, 1.0-1.5 kg/m^3 BAE; in the series on wood-boring insects, 1.2 kg/m^3 BAE.
For the compound “dilithium octaborate [dilithium octaborate (LOB)]”, the “BAE at room temperature” value in series [1] was 24.1 % BAE.
With hydrazine borate [#1], the pH in series [2] (setting [5]) was found to be 9.50. Besides, the “Appearance of the solution / precipitate formation” value in series [3] is “transparent solutions”.
In the same order, the values of hydrazine borate [#2] are 8.42 and “transparent solutions”.
hydrazine borate [#3] came in with a pH in series [2] (setting [5]) of 7.45.
hydrazine borate [#4]: the pH in series [2] (setting [5]) is 6.13.
Still for that read-out and setting: in the case of hydrazine borate [#5] it was 6.33; in that of hydrazine borate [#6], 6.59.
The compound hydrazine borate [#7] yielded a pH in series [2] (setting [6]) of 8.45.
As to hydrazine borate [#8], the Precipitation over time result is “N” in series [4] (diluted 1:1 in distilled water, 1 Days); “N” in series [4] (diluted 1:1 in distilled water, 3 Days); “N” in series [4] (diluted 1:1 in distilled water, 5 Days); “N” in series [4] (diluted 1:1 in distilled water, 7 Days); “N” in series [4] (diluted 2:1 in distilled water, 1 Days); “N” in series [4] (diluted 2:1 in distilled water, 3 Days). Moreover, the Precipitation over time result was “N” in series [4] (diluted 2:1 in distilled water, 5 Days); “N” in series [4] (diluted 2:1 in distilled water, 7 Days); “N” in series [4] (diluted 3:1 in distilled water, 1 Days); “N” in series [4] (diluted 3:1 in distilled water, 3 Days); “N” in series [4] (diluted 3:1 in distilled water, 5 Days); “N” in series [4] (diluted 3:1 in distilled water, 7 Days). Moreover, the pH in series [2] (setting [6]) turned out to be 8.42.
The compound hydrazine borate [#9] showed a pH in series [2] (setting [6]) of 8.41.
On to hydrazine borate [#10], for which the pH in series [2] (setting [6]) was found to be 8.40.
In the case of hydrazine borate [#11], the pH in series [2] (setting [6]) is recorded as 8.37.
